Reference: patent publication US20230293535A1, “ERBB/BTK INHIBITORS” (Dizal (Jiangsu) Pharmaceutical Co., Ltd., priority 2018, published 2023)

How the values were obtained:
[1] = target: T1, human EGFR exon 20 H773_V774insNPH (Homo sapiens, UniProt P00533, INS773NPH); assay: EGFR Exon20 NPH insertion cellular phosphorylation inhibition (MSD pEGFR Y1068/total EGFR); format: cell-based; details: Ba/F3 EGFR NPH ins cells, 4 h compound, p-EGFR(Y1068)/total EGFR;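 note: IL3-independent Ba/F3 cells with constitutively phosphorylated EGFR, compound exposure at 37 °C under 5% CO2, electrochemiluminescent MSD measurement of the p-EGFR to total EGFR ratio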
T1 construct: host or cells: Ba/F3
T1 sequence (P00533 with tags, fused parts or gaps INS773NPH): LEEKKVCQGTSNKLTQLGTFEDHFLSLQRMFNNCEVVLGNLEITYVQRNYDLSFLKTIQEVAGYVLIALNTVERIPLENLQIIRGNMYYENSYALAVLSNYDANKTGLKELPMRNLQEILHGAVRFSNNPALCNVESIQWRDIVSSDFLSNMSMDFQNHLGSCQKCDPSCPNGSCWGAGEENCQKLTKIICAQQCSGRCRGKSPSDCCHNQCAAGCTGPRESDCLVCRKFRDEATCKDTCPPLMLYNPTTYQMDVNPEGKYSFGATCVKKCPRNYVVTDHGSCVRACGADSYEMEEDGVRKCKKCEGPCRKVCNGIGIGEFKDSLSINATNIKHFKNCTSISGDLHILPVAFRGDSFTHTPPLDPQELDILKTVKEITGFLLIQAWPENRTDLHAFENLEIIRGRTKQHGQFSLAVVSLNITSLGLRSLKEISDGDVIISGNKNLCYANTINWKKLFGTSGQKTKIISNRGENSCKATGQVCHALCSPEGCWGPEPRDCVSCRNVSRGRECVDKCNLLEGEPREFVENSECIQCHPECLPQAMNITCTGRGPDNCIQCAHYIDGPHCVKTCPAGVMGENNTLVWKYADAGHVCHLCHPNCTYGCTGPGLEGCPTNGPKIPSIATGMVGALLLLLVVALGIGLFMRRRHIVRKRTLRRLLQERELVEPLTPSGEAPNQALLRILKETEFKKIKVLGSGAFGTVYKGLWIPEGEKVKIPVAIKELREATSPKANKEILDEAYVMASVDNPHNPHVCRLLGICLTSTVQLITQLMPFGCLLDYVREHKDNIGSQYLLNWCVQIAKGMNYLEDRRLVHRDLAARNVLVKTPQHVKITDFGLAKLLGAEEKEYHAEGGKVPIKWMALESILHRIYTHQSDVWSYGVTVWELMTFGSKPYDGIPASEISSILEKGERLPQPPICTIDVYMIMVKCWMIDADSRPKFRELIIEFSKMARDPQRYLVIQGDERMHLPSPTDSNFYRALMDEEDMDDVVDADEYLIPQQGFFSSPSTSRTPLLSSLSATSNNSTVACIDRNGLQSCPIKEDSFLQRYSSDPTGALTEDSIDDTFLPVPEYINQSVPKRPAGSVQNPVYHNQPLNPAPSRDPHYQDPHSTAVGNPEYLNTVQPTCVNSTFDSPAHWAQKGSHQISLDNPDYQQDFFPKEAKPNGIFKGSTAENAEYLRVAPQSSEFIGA

[2] = target: T2, human EGFR exon 20 V769_D770insASV (Homo sapiens, UniProt P00533, INS769ASV); assay: EGFR Exon20 ASV insertion cellular phosphorylation inhibition (MSD pEGFR Y1068/total EGFR); format: cell-based; details: Ba/F3 EGFR ASV ins cells, 4 h compound, p-EGFR(Y1068)/total EGFR;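 note: electrochemiluminescent readout on an MSD SECTOR Imager, IL3-independent transduced cells in medium with 1% FBS, compound concentration series at 37 °C and 5% CO2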
T2 construct: expressed in transfected cells; host or cells: Ba/F3 (DSMZ ACC-300), lentiviral transduction, puromycin selection, IL3 depletion
T2 sequence (P00533 with tags, fused parts or gaps INS769ASV): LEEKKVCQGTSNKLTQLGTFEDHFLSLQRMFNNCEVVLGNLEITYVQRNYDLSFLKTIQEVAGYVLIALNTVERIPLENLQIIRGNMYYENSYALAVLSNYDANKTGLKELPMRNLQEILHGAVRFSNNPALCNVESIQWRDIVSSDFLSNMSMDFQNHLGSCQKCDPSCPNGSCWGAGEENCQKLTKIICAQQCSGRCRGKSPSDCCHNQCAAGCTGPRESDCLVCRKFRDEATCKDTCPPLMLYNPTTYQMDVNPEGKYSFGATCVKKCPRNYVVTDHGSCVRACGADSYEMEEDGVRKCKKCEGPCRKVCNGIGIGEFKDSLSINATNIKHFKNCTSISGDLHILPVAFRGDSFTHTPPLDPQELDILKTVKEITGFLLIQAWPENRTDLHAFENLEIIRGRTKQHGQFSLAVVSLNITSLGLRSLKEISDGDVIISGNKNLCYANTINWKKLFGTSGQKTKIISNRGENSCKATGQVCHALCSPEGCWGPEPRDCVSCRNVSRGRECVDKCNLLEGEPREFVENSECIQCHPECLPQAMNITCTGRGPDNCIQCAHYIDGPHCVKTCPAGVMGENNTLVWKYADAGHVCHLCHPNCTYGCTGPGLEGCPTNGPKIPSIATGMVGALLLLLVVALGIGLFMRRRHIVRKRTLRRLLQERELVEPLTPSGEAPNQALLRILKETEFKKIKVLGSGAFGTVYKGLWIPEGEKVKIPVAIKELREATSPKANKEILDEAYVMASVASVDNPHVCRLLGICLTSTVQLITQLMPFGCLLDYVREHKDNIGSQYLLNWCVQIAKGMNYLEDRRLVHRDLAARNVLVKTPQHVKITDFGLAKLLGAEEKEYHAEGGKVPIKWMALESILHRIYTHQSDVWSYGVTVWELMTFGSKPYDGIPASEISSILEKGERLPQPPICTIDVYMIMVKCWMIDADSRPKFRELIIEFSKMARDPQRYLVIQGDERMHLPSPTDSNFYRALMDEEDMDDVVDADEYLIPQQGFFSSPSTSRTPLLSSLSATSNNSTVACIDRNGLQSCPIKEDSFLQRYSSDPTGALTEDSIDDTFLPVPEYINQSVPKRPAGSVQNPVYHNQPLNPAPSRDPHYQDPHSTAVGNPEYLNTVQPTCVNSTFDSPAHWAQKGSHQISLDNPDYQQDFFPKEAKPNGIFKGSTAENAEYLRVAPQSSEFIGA

EGFR L858R&T790M = target: T3, EGFR L858R&T790M (Homo sapiens, UniProt P00533, L858R/T790M); assay: EGFR L858R and T790M cellular phosphorylation inhibition in NCI-H1975 (MSD); format: cell-based; details: NCI-H1975 cells, 4 h compound, p-EGFR(Y1068)/total EGFR; read-out: EGFR L858R and T790M mutation IC50;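 note: phosphorylated and total EGFR detected by electrochemiluminescence, cells exposed to compound in medium containing 1% FBS at 37 °C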
T3 construct: host or cells: NCI-H1975
T3 sequence (P00533 25-1210 T790M/L858R): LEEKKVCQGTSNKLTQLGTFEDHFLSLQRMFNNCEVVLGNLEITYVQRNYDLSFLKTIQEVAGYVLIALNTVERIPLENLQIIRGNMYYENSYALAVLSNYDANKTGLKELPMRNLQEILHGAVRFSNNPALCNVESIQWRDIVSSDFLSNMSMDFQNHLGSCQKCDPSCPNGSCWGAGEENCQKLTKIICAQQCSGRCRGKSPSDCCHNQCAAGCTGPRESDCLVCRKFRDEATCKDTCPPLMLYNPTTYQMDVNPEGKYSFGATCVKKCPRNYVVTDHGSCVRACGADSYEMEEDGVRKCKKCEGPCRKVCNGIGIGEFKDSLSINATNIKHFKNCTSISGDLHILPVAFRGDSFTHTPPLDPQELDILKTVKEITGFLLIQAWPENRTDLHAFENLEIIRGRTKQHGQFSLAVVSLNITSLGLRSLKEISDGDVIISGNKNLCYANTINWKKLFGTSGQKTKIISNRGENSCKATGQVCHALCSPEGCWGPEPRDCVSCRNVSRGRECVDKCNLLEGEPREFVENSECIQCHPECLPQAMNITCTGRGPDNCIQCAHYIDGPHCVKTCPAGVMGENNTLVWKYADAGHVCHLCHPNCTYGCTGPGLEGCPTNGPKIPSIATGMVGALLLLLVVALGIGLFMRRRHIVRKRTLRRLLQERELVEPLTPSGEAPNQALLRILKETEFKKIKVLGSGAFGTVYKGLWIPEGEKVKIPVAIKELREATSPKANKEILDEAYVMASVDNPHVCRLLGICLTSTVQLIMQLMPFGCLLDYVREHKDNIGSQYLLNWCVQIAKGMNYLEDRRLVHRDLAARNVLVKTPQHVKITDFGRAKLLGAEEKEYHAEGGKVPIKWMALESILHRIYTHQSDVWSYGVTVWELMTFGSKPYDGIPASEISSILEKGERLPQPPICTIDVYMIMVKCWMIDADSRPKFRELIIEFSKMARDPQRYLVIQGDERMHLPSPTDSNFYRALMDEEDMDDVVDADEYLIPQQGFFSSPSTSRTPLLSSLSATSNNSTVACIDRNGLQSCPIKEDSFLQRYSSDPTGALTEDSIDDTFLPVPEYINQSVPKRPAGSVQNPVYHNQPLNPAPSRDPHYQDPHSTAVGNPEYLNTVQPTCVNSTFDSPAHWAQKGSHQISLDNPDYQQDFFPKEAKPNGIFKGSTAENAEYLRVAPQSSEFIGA

[3] = tested on: Her2 exon 20 insertion YVMA transduced NIH-3T3 cell line; assay: Cell proliferation, Her2 YVMAins NIH-3T3 (CellTiter-Glo, 72 h); format: cell-based; details: Mus musculus, NIH3T3, 72 h, Her2 YVMAins cells, 72 h proliferation; read-out: Her2 Exon 20 YVMA insertion GI50;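 note: viable cells quantified by ATP luminescence, growth over a day-zero baseline plate expressed as percent of DMSO control growth, compound dilution series in 10% FBS medium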
OCI-LY-10 cells = assay: BTK (wt) cell proliferation, OCI-LY-10 (CellTiter-Glo, 72 h); format: cell-based; details: Homo sapiens, OCI-Ly10, 72 h, OCI-LY-10 cells, 72 h, CellTiter-Glo; read-out: BTK WT OCI-LY-10 GI50;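 note: viable cells quantified via cellular ATP luminescence, proliferation given as percent of DMSO control after subtracting a duplicate plate read at time of dosing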
Protocol: OCI-LY-10 at 3,750 cells/well, TMD-8 and Ri-1 at 2,000 cells/well, and DB at 1,250 cells/well, respectively, were sorted into 384-well plates in RPMI1640 medium with 10% FBS. After overnight incubation, all cells were incubated with compound at a series of concentrations. Meanwhile, a duplicated plate of each cell line was prepared for measuring G0 value. The dosed plates were further incubated for 72 hours and the number of viable cells was measured by CellTiter-Glo® Luminescent Cell Viability Assay (Promega), a luminescent method for determining the number of viable cells through measurement of cellular ATP concentration using Envision plate reader (PerkinElmer). The percentage of proliferation was calculated as: % Proliferation = 100 × (G3 value of sample well - G0 value)/(G3 value of DMSO control - G0 value).

Ri-1 cells = assay: BTK (wt) cell proliferation, Ri-1 (CellTiter-Glo, 72 h); format: cell-based; details: Ri-1, 72 h, Ri-1 cells, 72 h, CellTiter-Glo; read-out: BTK WT Ri-1 GI50;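 note: viable cells quantified as cellular ATP luminescence, proliferation normalized to a time-zero plate and the DMSO control, compounds tested across a dilution series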
[4] = tested on: NSCLC with EGFR Exon20ins; assay: Anti-tumor activity in platinum-pretreated NSCLC patients with EGFR Exon20 insertion mutations; format: in vivo, human
[5] = In vitro rat hepatocytes clearance assay; details: male, rat, cryopreserved rat hepatocytes (suspension), rat hepatocytes Clint (µL/min/10^6cells), 1 µM-range incubation up to 100 min
[6] = In vitro human hepatocytes clearance assay; details: both, human, cryopreserved human hepatocytes (suspension), human hepatocytes Clint (µL/min/10^6cells), mixed gender human hepatocytes, incubation up to 100 min
Protocol: The protocol for rat/human hepatocytes metabolic stability assay is employed to determine the clearance of the compounds of the present disclosure in vitro.
Rat hepatocytes in male gender and human hepatocytes in mixed gender were obtained from commercial vendors (e.g., BioreclamationIVT) and stored at -150° C. prior to use. 10 mM stock solutions of tested compounds were prepared in DMSO. Thawing medium and supplement incubation medium (serum-free) were placed in a 37° C. water bath for at least 15 minutes prior to use. Stock solutions were diluted to 100 µM by combining 198 µL acetonitrile and 2 µL of 10 mM stock solution.
Vials of cryopreserved hepatocytes were removed from storage, ensured that vials remain at cryogenic temperatures. The vials were thawed in a 37° C. water bath with gently shaking. Vials were kept in water bath until all ice crystals had dissolved and were no longer visible. Vials were sprayed with 70% ethanol before being transferred to a biosafety cabinet. And then the contents were poured into the 50 mL thawing medium conical tube. Vials were centrifuged at 100 g for 10 minutes at room temperature.
Cell viability and density were counted using a Trypan Blue exclusion, and then cells were diluted with serum-free incubation medium to a working cell density of 1 × 10^6 viable cells/ml. […] The inactivated hepatocytes were used to prepare negative samples, which were used to exclude the misleading factor that resulted from instability of chemical itself.
Aliquots of 247.5 µL hepatocytes were dispensed into each well of a 96-well non-coated plate. The plate was placed in the incubator on an orbital shaker for approximately 10 minutes. Aliquots of 2.5 µL of the 100 µM test compounds were added into respective wells of the non-coated 96-well plate to start the reaction. This assay was performed in duplicate. The plate was incubated in the incubator on an orbital shaker for the designed time points. […] Samples were centrifuges for 20 minutes at 4000 g and aliquots of 100 µL of the supernatants were used for LC-MS/MS analysis for measurement of test compounds
In vitro hepatocyte clearance was estimated based on determination of elimination half-life (T½) of compounds disappearance from their initial concentrations. Peak area ratios of each compound (test or control) to IS was calculated. Ln (%Control) versus Incubation Time (min) curve was plotted, and the slope of a linear fitting line was calculated.

C=CC(=O)Nc1cc(Nc2nccc(Nc3cc(Cl)c(F)cc3C(C)(C)O)n2)c(OC)cc1N1CC[C@@H](N(C)C)C1 [Compound 52, (R)-N-(5-(4-(5-chloro-4-fluoro-2-(2-hydroxypropan-2-yl)phenylamino)pyrimidin-2-ylamino)-2-(3-(dimethylamino)pyrrolidin-1-yl)-4-methoxyphenyl)a crylamide]
IC50 [1]: 20.4 nM
IC50 [2]: 20.4 nM
IC50 (EGFR L858R&T790M): 1.1 nM
GI50 [3]: 101 nM
GI50 (OCI-LY-10 cells): 3.2 nM
GI50 (Ri-1 cells): 51.3 nM
anti-tumor activity in earlier clinical studies [4]: Significant anti-tumor activities
hepatocyte CLint at 1 µM [5]: 13.3 µL/min/1e6 cells
hepatocyte CLint at 1 µM [6]: 3.29 µL/min/1e6 cells
